Test results published in patent US10875860B2, “Azaindenoisoquinoline compounds and uses thereof” (Purdue Research Foundation, priority 2016, dated 2020).
Where two headings read alike, the source gives them in different places.

Experiments:
MCF-7 = assay: NCI-60 cytotoxicity, MCF-7; conditions: Homo sapiens, MCF7, read-out: Cytotoxicity (GI50) Breast MCF-7
UACC-62 = assay: NCI-60 cytotoxicity, UACC-62; conditions: Homo sapiens, UACC-62, read-out: Cytotoxicity (GI50) Melanoma UACC-62
recombinant human TDP2 = target: T1, recombinant human TDP2 (Homo sapiens, UniProt O95551); assay: Recombinant Tdp2 assay; format: biochemical
T1 sequence (O95551 1-362): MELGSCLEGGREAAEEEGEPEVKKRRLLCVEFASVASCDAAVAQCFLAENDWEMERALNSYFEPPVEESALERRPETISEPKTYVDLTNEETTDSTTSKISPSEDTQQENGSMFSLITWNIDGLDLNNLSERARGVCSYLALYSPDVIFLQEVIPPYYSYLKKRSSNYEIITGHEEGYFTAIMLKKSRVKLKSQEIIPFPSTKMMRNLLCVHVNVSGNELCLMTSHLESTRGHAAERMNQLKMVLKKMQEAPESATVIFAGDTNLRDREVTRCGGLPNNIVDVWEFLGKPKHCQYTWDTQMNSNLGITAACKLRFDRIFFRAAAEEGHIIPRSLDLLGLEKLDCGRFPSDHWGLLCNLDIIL
Protocol: TDP2 reactions were carried out as described previously with the following modifications. […] Reactions were terminated and treated similarly to whole-cell extract and recombinant Tdp1 reactions (see previous paragraph).

SF-539 = assay: NCI-60 cytotoxicity, SF-539; conditions: Homo sapiens, SF-539, read-out: Cytotoxicity (GI50) CNS SF-539
HOP-62 = assay: NCI-60 cytotoxicity, HOP-62; conditions: Homo sapiens, HOP-62, read-out: Cytotoxicity (GI50) Lung HOP-62
Top1 = target: T2, Top1 (Homo sapiens, UniProt P11387); assay: Top1-mediated DNA cleavage assay; format: biochemical; set-up: Top1 inhibitory activity level / Top1 inhibitory activity score: key to the marks not given beside the values; conditions: for Enzyme Inhibitory Activity Top1: DNA cleavage relative to 1 μM MJ-III-65 (19) and 1 μM camptothecin (18); for Top1 inhibitory activity level: series 1
T2 sequence (P11387 1-765): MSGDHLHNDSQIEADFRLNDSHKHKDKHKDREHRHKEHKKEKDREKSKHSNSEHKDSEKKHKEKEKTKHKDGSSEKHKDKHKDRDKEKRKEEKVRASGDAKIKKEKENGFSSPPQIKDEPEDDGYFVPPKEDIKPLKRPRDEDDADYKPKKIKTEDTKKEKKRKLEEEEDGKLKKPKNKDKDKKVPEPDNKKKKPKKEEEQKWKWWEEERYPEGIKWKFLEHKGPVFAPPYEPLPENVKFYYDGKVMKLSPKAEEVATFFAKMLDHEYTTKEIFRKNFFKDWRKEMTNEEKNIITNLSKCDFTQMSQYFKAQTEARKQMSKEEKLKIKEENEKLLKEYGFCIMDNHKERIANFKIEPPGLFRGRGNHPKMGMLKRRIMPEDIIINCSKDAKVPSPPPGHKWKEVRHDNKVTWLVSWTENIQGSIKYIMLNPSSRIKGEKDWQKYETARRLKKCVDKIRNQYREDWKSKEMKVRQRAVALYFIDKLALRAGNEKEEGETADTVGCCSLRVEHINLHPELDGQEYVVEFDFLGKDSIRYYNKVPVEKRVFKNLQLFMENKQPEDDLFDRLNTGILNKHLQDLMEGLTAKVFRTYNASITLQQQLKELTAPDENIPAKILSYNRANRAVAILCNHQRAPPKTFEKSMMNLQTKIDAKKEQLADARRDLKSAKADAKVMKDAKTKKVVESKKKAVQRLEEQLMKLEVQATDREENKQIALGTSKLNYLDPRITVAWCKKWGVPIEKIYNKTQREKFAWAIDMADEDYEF

OVCAR-3 = assay: NCI-60 cytotoxicity, OVCAR-3; conditions: Homo sapiens, OVCAR-3, read-out: Cytotoxicity (GI50) Ovarian Ovcar-3
[1] = test system: NCI-60 panel of human cancer cell lines; assay: NCI-60 screen, mean graph midpoint over all cell lines; conditions: for GI50: Homo sapiens
SN12C = assay: NCI-60 cytotoxicity, SN12C; conditions: Homo sapiens, read-out: Cytotoxicity (GI50) Renal SN12C
Tdp1 = Tdp1 (Homo sapiens, UniProt Q9NUW8); assay: Recombinant Tdp1 assay; format: biochemical
DU-145 = assay: NCI-60 cytotoxicity, DU-145; format: cell-based; conditions: Homo sapiens, single determinations, Table 2, read-out: Cytotoxicity (GI50) Prostate DU-145
HCT-116 = assay: NCI-60 cytotoxicity, HCT-116; format: cell-based; conditions: Homo sapiens, single determinations, Table 2, read-out: Cytotoxicity (GI50) Colon HCT-116
[2] = semiquantitative scale, in duplicate, Table 1, read-out: Enzyme Inhibitory Activity Tdp2
[3] = read-out: Cytotoxicity (GI50) MGM
[4] = semiquantitative scale, in duplicate, Table 1, read-out: Enzyme Inhibitory Activity Tdp1
[5] = read-out: MGM (GI50 mean graph midpoint)
[6] = determined in duplicate, Table 2, read-out: Enzyme Inhibitory Activity Tdp1 (IC50)
[7] = read-out: Enzyme Inhibitory Activity Tdp2 (IC50)

Sequence of Tdp1 (Q9NUW8 whole entry): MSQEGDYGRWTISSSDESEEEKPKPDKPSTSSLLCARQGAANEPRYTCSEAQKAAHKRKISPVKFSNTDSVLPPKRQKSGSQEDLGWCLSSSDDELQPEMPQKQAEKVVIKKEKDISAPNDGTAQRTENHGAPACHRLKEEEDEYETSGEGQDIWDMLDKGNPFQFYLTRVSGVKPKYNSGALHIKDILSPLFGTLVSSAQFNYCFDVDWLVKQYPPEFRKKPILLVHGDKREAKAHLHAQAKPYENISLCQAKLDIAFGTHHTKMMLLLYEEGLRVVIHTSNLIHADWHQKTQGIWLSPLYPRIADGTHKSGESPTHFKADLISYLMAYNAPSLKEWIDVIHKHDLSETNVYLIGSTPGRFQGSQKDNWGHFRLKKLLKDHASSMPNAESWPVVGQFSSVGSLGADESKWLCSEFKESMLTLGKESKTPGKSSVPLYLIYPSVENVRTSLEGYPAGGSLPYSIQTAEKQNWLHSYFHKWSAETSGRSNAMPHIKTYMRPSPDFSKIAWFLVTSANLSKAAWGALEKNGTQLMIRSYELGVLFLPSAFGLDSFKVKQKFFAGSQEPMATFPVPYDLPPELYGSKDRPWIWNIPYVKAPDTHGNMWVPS

Structure (SMILES) | GI50 (MCF-7) [nM] | GI50 (UACC-62) [nM] | IC50 (recombinant human TDP2; [2]) [nM] | GI50 (SF-539) [nM] | GI50 (HOP-62) [nM] | Enzyme Inhibitory Activity Top1 (Top1; Table 1) | Top1 inhibitory activity level (Top1) | GI50 (OVCAR-3) [nM] | GI50 [1, 3] [nM] | GI50 (SN12C) [nM] | IC50 (Tdp1; [4]) [nM] | melting point [°C] | GI50 [1, 5] [nM] | cytotoxicity in the one-concentration preliminary testing ([1]; NCI-60 initial 1-concentration test) | IC50 (recombinant human TDP2; determined in duplicate, Table 2, read-out: Enzyme Inhibitory Activity Tdp2 (IC50)) [nM] | Enzyme Inhibitory Activity Top1 (Top1; Table 2) | IC50 (Tdp1; [6]) [nM] | GI50 (DU-145) [nM] | GI50 (HCT-116) [nM] | IC50 (recombinant human TDP2; [7]) [nM]
COc1cnc2c(c1)C(=O)c1c-2n(CCCBr)c(=O)c2cc([N+](=O)[O-])ccc12 [Compound 7, 7-Aza-6-(3-bromopropyl)-5,6-dihydro-9-methoxy-3-nitro-5,11-dioxo-11H-indeno[1,2-c]isoquinoline] | 46 | 82 | 37000 to 111000 | 279 | 58 | ++ | ++ | 248 | 112 | 269 | 12000 to 37000 | 170 to 172 |  |  |  |  |  |  |  | 
COc1cnc2c(c1)C(=O)c1c-2n(CCCN2CCCC2)c(=O)c2cc([N+](=O)[O-])ccc12 [Compound 8, 7-Aza-5,6-dihydro-6-[3-(4-pyrrolidine-1-yl)propyl]-9-methoxy-3-nitro-5,11-dioxo-11H-indeno[1,2-c]isoquinoline] | < 10 | 15 | 37000 to 111000 | 31 | < 10 | ++ | ++ | 59 | 45 | 36 | 1000 to 12000 | 248 to 250 |  |  |  |  |  |  |  | 
COc1cnc2c(c1)C(=O)c1c-2n(CCCN2CCN(C)CC2)c(=O)c2cc([N+](=O)[O-])ccc12 [Compound 9, 7-Aza-5,6-dihydro-6-[3-(3H-methylpiperazine-1-yl)propyl]-9-methoxy-3-nitro-5,11-dioxo-11H-indeno[1,2-c]isoquinoline] | 16 | 183 | 12000 to 37000 | 191 | 81 | ++ | ++ | 171 | 562 | 214 | 12000 to 37000 | 211 to 213 |  |  |  |  |  |  |  | 
COc1cnc2c(c1)C(=O)c1c-2n(CCCN2CCNCC2)c(=O)c2cc([N+](=O)[O-])ccc12 [Compound 10, 7-Aza-5,6-dihydro-9-methoxy-3-nitro-5,11-dioxo-6-[3-(piperazine-1-yl)propyl]-11H-indeno[1,2-c]isoquinoline] | 36 | 175 | 37000 to 111000 | 355 | 65 | ++ | ++ | 1190 | 316 | 230 | 12000 to 37000 | 134 to 135 |  |  |  |  |  |  |  | 
CNCCCn1c2c(c3ccc([N+](=O)[O-])cc3c1=O)C(=O)c1cc(OC)cnc1-2 [Compound 11] | 1060 | 20 | 37000 to 111000 | 51 | 30 | +++ | +++ | 174 | 741 | 46 | 1000 to 12000 | 259 to 262 | 714 |  |  |  |  |  |  | 
COc1cnc2c(c1)C(=O)c1c-2n(CCCNC2=NCCS2)c(=O)c2cc([N+](=O)[O-])ccc12 [Compound 12, 7-Aza-5,6-dihydro-6-[3-((4,5-dihydrothiazol-2-yl)amino)propyl]-9-methoxy-3-nitro-5,11-dioxo-11H-indeno[1,2-c]isoquinoline] | < 10 | < 10 | 12000 to 37000 | 36 | 14 | ++++ | ++++ | 137 | 58 | < 10 | 1000 to 12000 | 175 to 177 |  |  |  |  |  |  |  | 
COc1cnc2c(c1)C(=O)c1c-2n(CCCN2CCN(CCO)CC2)c(=O)c2cc([N+](=O)[O-])ccc12 [Compound 16, 7-Aza-5,6-dihydro-6-[3-(4-(2-hydroxyethyl)piperazin-1-yl)propyl]-9-methoxy-3-nitro-5,11-dioxo-11H-indeno[1,2-c]isoquinoline] | 142 | 1220 | > 111000 | 1700 | 2760 | +++ | +++ | 1460 | 1660 |  | > 111000 | 214 to 216 | 1650 |  |  |  |  |  |  | 
COc1cnc2c(c1)C(=O)c1c-2n(CCCN2CCC(N)CC2)c(=O)c2cc([N+](=O)[O-])ccc12 [Compound 17, 6-[3-(4-Aminopiperidin-1-yl)propyl]-7-aza-5,6-dihydro-9-methoxy-3-nitro-5,11-dioxo-11H-indeno[1,2-c]isoquinoline] |  |  | 1000 to 12000 |  |  | ++ | ++ |  |  |  | 1000 to 12000 | 258 to 260 |  | low cytotoxicity |  |  |  |  |  | 
COc1cnc2c(c1)C(=O)c1c-2n(CCCN2CCC(O)CC2)c(=O)c2cc(F)ccc12 [Compound 17d, 3-Fluoro-6-(3-(4-hydroxypiperidin-1-yl)propyl)-9-methoxy-5H-pyrido[3′,2′:4,5]-cyclopenta[1,2-c]-isoquinoline-5,11(6H)-dione] | 31 | 240 |  | 295 | 142 |  |  | 254 | 199 | 189 |  |  |  |  | > 111000 | + | > 111000 | 174 | 89 | 
COc1cnc2c(c1)C(=O)c1c-2n(CCCN2CCNCC2)c(=O)c2cc(F)ccc12 [Compound 17e, 3-Fluoro-9-methoxy-6-(3-(piperazin-1-yl)propyl)-5H-pyrido[3′,2′:4,5]cyclopenta-[1,2-c]isoquinoline-5,11(6H)-dione] | 34 | 1260 |  | 532 | 66 |  |  | 335 | 218 | 80 |  |  |  |  |  | + | > 111000 | 62 | 91 | 107000 ± 5200
CCNCCCn1c2c(c3ccc(F)cc3c1=O)C(=O)c1cc(OC)cnc1-2 [Compound 17h, 6-(3-(Ethylamino)propyl)-3-fluoro-9-methoxy-5H-pyrido[3′,2′:4,5]cyclopenta[1,2-c]isoquinoline-5,11(6H)-dione] | 42 | 341 |  | 320 | 149 |  |  | 282 | 229 | 151 |  |  |  |  |  | ++ | > 111000 | 215 | 136 | 104000
